Where two headings read alike, the source gives them in different places.

These results are taken from US5236837A, “Enzymatic reagent for D-malate determination” (Boehringer Mannheim GmbH, priority 1989, dated 1993).

The test system of series [1] is D-malic enzyme from Pseudomonas fluorescens. The following applies: cited from earlier work.
Series [2] deals with T1, NAD+-dependent D-malate dehydrogenase (decarboxylating, E.C. 1.1.1.83) from E. coli (D-MDH, E. coli DSM 5496) (Escherichia coli, UniProt P76251).
T1 construct: two 42 kD subunits, full length, no tag
T1 sequence (P76251 1-361): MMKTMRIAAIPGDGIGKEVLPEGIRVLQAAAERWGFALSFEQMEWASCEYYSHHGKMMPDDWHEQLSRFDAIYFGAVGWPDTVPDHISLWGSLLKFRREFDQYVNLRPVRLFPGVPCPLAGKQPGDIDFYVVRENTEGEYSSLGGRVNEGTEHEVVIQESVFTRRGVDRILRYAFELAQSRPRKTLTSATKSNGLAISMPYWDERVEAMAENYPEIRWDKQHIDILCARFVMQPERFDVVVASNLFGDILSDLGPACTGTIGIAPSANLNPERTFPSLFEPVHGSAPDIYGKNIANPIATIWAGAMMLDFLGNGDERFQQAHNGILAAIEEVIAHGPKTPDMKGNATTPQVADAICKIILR
Briefly: Km determination and EDTA effect on the enzyme according to the invention. The format is biochemical. As to conditions: EDTA 0.7 mg/ml test solution.

Series [3] deals with D-malic enzyme from E. coli K12 (Crookes strain). The following applies: EDTA 3.3 μmol/ml; raw extract; cited from earlier work.
Substrate in series [4]: NC(=O)c1ccc[n+]([C@@H]2O[C@H](COP(=O)([O-])OP(=O)(O)OC[C@H]3O[C@@H](n4cnc5c(N)ncnc54)[C@H](O)[C@@H]3O)[C@@H](O)[C@H]2O)c1
The series is described as follows: Km determination and EDTA effect on the enzyme according to the invention. As to conditions: other: Tris, pH 8.5, 25° C., pH 8.5. The series is classed as biochemical, E. coli.

Substrate in series [5]: O=C(O)C[C@@H](O)C(=O)O
The series is described as above. The format is biochemical, E. coli.

As usually defined, the Km is the substrate concentration at which the rate is half of its maximum. On to `NC(=O)c1ccc[n+]([C@@H]2O[C@H](COP(=O)([O-])OP(=O)(O)OC[C@H]3O[C@@H](n4cnc5c(N)ncnc54)[C@H](O)[C@@H]3O)[C@@H](O)[C@H]2O)c1` [NAD^+], for which the Km in series [1] (read-out: Km for NAD+) is 80 µM.

As for `O=C(O)C[C@@H](O)C(=O)O` [D-malate], the Km in series [1] (read-out: Km for malate) is 300 µM.

Take `O=C(O)CN(CCN(CC(=O)O)CC(=O)O)CC(=O)O` [EDTA]: the “Inhibition of enzyme activity by EDTA” value in series [2] was “not inhibited”. Moreover, the “Inhibition of the reaction by EDTA” value in series [3] was “inhibited”.

B1: NAD+-dependent D-malate dehydrogenase (decarboxylating, E.C. 1.1.1.83) from E. coli (D-MDH, E. coli DSM 5496) (Escherichia coli K-12) (protein)
chain: T1 sequence (P76251 1-361)
notes: two 42 kD subunits, full length, no tag
Turning to B1, the Km came out at 0.4 mmol/L in series [4]; 1.5 mmol/L in series [5] (other: HEPES, pH 9.0, 25° C., pH 9.0); 1.1 mmol/L in series [5] (other: Tris, pH 8.5, 25° C., pH 8.5).
